What all share (assay type): cell-based
In one test the test system is breast cancer cell lines. The test is described as follows: Aurora kinase inhibitor sensitivity of breast cancer cell lines by Agro, TN and iBCR score (two published studies). How it is done: Two studies which treated breast cancer cell lines with Aurora kinase inhibitors were analyzed based on the Agro, TN and the iBCR score for these cell lines.
Test [1] relates to cancer cell lines. The test is described as follows: Garnett et al. drug screen re-analysed by TN/Agro/iBCR score. The settings on record: Garnett et al. study, dichotomy across median iBCR score. How it is done:
FIG. 24: Drug sensitivity of cancer cell lines according to the TN score. The large published study by Garnett et al. was investigated where the TN score was calculated for each cell line in the study as described in Methods. The cell lines were classified as high or low TN score according to the median TN score to compare the sensitivity of low TN score cell lines (white boxes) and high TN score cell lines (red boxes). Graphs were prepared using GraphPad® Prism showing sensitivity as −log 10[IC50] in boxes (with median marked by a line) and whiskers (marking the 1st and 3rd quartiles and outliers as dots according to Tukey method for plotting the whiskers and outliers). Unpaired two-tailed t test was used for statistical analysis.
FIG. 30: Drug sensitivity of cancer cell lines according to the iBCR score. The large published study by Garnett et al. was investigated where the iBCR score was calculated for each cell line from the Agro and TN scores. The cell lines were classified as high or low iBCR score according to the median iBCR score to compare the sensitivity of low iBCR score cell lines (white boxes) and […] (red boxes). Results according to low and high Agro score were also included.
(§1) Two large studies which treated large panels of cancer cell lines with large panels of anticancer drugs were investigated to determine whether cell lines with high Agro, TN or iBCR scores show different sensitivity to particular anticancer drugs in comparison to cancer cell lines with low Agro, TN or iBCR scores. Briefly, the datasets of gene expression profiling from Genentech (mRNA Cancer Cell Line Profiles GSE10843), Pfizer (Pfizer Molecular Profile Data for Cell Line GSE34211) and Broad Institute/Novartis (Cancer Cell Line Encyclopedia [CCLE] GSE3613) were obtained from GEO and imported into ArrayTools as described earlier. The Agro, TN and iBCR scores for all the cell lines profiled were calculated and cell lines were assigned as high or low for each of the scores based on dichotomy across the median in each dataset. For cell lines which were profiled in more than one dataset, the average scores were used. […] Statistical significance was determined from unpaired two-tailed t-test using GraphPad® Prism.
(§2) In the second approach, published studies which surveyed panels of molecular drugs against, cancer cell lines were analyzed. The Cancer Cell Line Encyclopedia (CCLE) study investigated the pharmacological profiles for 24 anticancer drugs across 479 cancer cell lines which were also profiled with gene expression arrays. We calculated the TN score for each cell line in this study and compared the sensitivity of these cell lines to the anticancer drugs according to the TN score. […] In a similar method, we also analyzed a second large study. Garnett et al., which tested 130 drugs against more than 600 cancer cell lines.

The subject of test [2] is cancer cell lines. The test is described as follows: Cancer Cell Line Encyclopedia (CCLE) drug sensitivity re-analysed by TN/Agro/iBCR score. The settings on record: CCLE study; for sensitivity (IC50) of high iBCR score vs low iBCR score cell lines: dichotomy across median iBCR score. The method, then: (§3) FIG. 35: Sensitivity of cancer cell lines to anticancer drugs according to the TN score in the Cancer Cell Line Encyclopedia (CCLE) study. The gene expression data of the cancer cell lines in the study were analyzed to calculate the TN score for each cell line and were assigned to low or high TN score by dichotomy across the median. The IC50 for each of the 24 drugs used in the CCLE study was compared between high and low TN score cell lines and the data shown are those with statistical differences based on unpaired two-tailed t-test performed using GraphPad® Prism.
as §3, with “FIG. 42: Sensitivity of” for “FIG. 35: Sensitivity of”, “to the iBCR score in” for “to the TN score in”, “or high iBCR score by” for “or high TN score by”, “and low iBCR score cell” for “and low TN score cell”, “GraphPad® Prism. As this analysis was also done for the TN score (FIG. 35), results from analysis of the Agro score are also shown in the top row.” for “GraphPad® Prism.”
as §1, §2

Test [3] concerns breast cancer cell lines (TNBC and non-TNBC). The test is described as follows: Cell survival (CellTiter 96 MTS/MTA assay) of breast cancer cell lines after drug treatment. The settings on record: 6 days; for survival of cells, combination of TTKi with docetaxel: very low (sub-lethal) doses, TNBC cell lines which overexpress TTK vs cell lines which do not. The method, then: FIG. 5: Therapeutic targets in the aggressiveness gene list. (A) The TNBC cell lines, MDA-MB-231, SUM159PT and Hs578T were treated with control siRNA (Scrambled, Sc CTRL) or siRNA targeting the specified genes and the survival of these cells was compared on day 6. Data shown is the average from the three cell lines where each cell line was treated in triplicate. * p<0.05, ** p<0.01 and *** <0.001 from One-Way ANOVA analysis performed using GraphPad® Prism. (B) A panel of breast cancer cell lines was used to prepare lysates for immunoblotting of TTK. Tubulin was used as the loading control. (C) Dose response curves for the treatment of breast cancer cell lines in the absence or presence of escalating doses of the TTK inhibitor (TTKi) AZ3146. The survival of cells was measured using the CellTitre® MTS/MTA assay carried out 6 days after treatment. Percentage survival (n=3 per dose) was calculated as the percentage of the signal from treated cells to that from control cells. […]
FIG. 7: TTK associates with aggressive subtypes and is a therapeutic target. […] The survival of cells was measured using the MTS/MTA assay as described in Methods. *** p<0.001 comparing the combination to single agents and to non-TNBC cell lines from Two-Way Anova in GraphPad® Prism. […]
Breast cancer cell lines were obtained from ATCC™ (VA, USA) and cultured as per ATCC™ instructions. […] Six days after siRNA knockdown or after drug treatments the survival of cells in comparison to control was determined using the CellTiter 96® Assay as per manufacturer instructions (Promega Corporation, WI, USA). For immunoblotting, standard protocols were used and membranes were probed with antibodies against TTK (anti-MPS1 mouse monoclonal antibody [N1] ab11108 (Abcam, Cambridge), and γ-tubulin (Sigma-Aldrich®) then developed using chemiluminescence reagent plus (Milipore, MA, USA). Flow cytometry to quantify apoptosis was performed using Annexin V-Alexa488 and 7-AAD (Life Technologies) as per manufacturer instruction using BD FACSCanto II™ flow cytometer (BD Biosciences, CA, USA).

The next test relates to MDA-MB-231 cells. The test is described as follows: Apoptosis assay by flow cytometry (Annexin V / 7-AAD). The settings on record: MDA-MB-231, collected at 96 hours. The source says:
FIG. 7: TTK associates with aggressive subtypes and is a therapeutic target. (A) Kaplan-Meier survival curves are shown for Grade 3 tumors, lymph node positive patients (LN^+) and LN^+ patients with grade 3 tumors. Log-rank Test and p-value were used for these survival curves. For patients with TNBC, and HER2, survival was statistically significant using the Gehan-Breslow-Wilcoxon test (p-values marked by asterisks) which gives more weight to deaths at early time points. […] Survival curves and statistical analyses were performed using GraphPad® Prism. (B) TNBC and non-TNBC cell lines were treated for 6 days with the specified concentrations of docetaxel (doc) alone, TTK inhibitor (TTKi) alone of the combinations. The survival of cells was measured using the MTS/MTA assay as described in Methods. *** p<0.001 comparing the combination to single agents and to non-TNBC cell lines from Two-Way Anova in GraphPad® Prism. (C) MDA-MB-231 cells were treated with docetaxel or TTKi alone or in combination and collected at 96 hours to perform apoptosis assays by flow cytometry. […]
Breast cancer cell lines were obtained from ATCC™ (VA, USA) and cultured as per ATCC™ instructions. […] Six days after siRNA knockdown or after drug treatments the survival of cells in comparison to control was determined using the CellTiter 96® Assay as per manufacturer instructions (Promega Corporation, WI, USA). […]
(Flow cytometry measures light scatter and fluorescence of single cells or particles in a stream.)

Setting [4] is: high iBCR score breast cancer cell lines, read-out: IC50, high iBCR score cell lines.
Setting [5] is: low iBCR score breast cancer cell lines, read-out: IC50, low iBCR score cell lines.

Entries after “also recorded” stand apart in the source; their conditions may differ. Read-outs that look alike come from different tables or passages of the source.

Turning to `Cc1csc(-c2nnc(Nc3ccc(Oc4ncccc4-c4ccnc(N)n4)cc3)c3ccccc23)c1` [AMG 900], the values for the IC50 in the test with breast cancer cell lines (setting [4]) and with breast cancer cell lines (setting [5]) were 0.3 nM and 0.7 nM, respectively.
For `Cc1cc(Nc2cc(N3CCN(C)CC3)nc(/C=C/c3ccccc3)n2)n[nH]1` [ENMD-2076] the same measures were 1400 nM and 5900 nM.
Take `Cc1cn(-c2cc(NC(=O)c3ccc(C)c(Nc4nccc(-c5cccnc5)n4)c3)cc(C(F)(F)F)c2)cn1` [Nilotinib]: in the test on cancer cell lines [1], the “sensitivity of high iBCR score vs low iBCR score cell lines” value is on record as “less sensitive”. Besides, in the test with cancer cell lines [2] (dichotomy across median TN score), the “sensitivity (IC50) of high TN score vs low TN score cell lines” value is “less sensitive”. The “sensitivity (IC50) of high iBCR score vs low iBCR score cell lines” value with cancer cell lines [2] is reported as “less sensitive”.
For `CN1CCN(c2ccc3nc(-c4c(N)c5c(F)cccc5[nH]c4=O)[nH]c3c2)CC1` [TKI258], the “sensitivity (IC50) of high iBCR score vs low iBCR score cell lines” value in the test with cancer cell lines [2] is “less sensitive”.
`CC(=O)O[C@@]12CO[C@@H]1C[C@H](O)[C@@]1(C)C(=O)[C@H](O)C3=C(C)[C@@H](OC(=O)[C@H](O)[C@@H](NC(=O)OC(C)(C)C)c4ccccc4)C[C@@](O)([C@@H](OC(=O)c4ccccc4)[C@H]21)C3(C)C` [docetaxel]: the “survival of cells, combination of TTKi with docetaxel” value in test [3] is “synergized”. For the same compound, the “apoptotic cell death, combination of TTKi with docetaxel” value in the test with MDA-MB-231 cells is listed as “induced apoptotic cell death”.
For the compound AZ3146, in test [3] (panel of breast cancer cell lines, TNBC cell lines vs other cell lines), the “sensitivity (survival of cells) to the TTK inhibitor” value is reported as “effective against TNBC cell lines; also recorded: TNBC cell lines were more sensitive”. The “survival of cells, combination of TTKi with docetaxel” value in test [3] is recorded as “synergized with docetaxel”. Further, in the test with MDA-MB-231 cells, the “apoptotic cell death, combination of TTKi with docetaxel” value is “induced apoptotic cell death”.

The record behind these values is patent US20170107577A1, “Determining Cancer Aggressiveness, Prognosis and Responsiveness to Treatment” (THE COUNCIL OF THE QUEENSLAND INSTITUTE OF MEDICAL RESEARCH, priority 2014, published 2017).
